Results taken from patent US9850283B2, “Macrocyclic inhibitors of the PD-1/PD-L1 and CD80(B7-1)/PD-L1 protein/protein interactions” (BRISTOL-MYERS SQUIBB COMPANY, priority 2013, dated 2017).
Like-named read-outs stand apart in the source and are kept apart here. Starred links: 1 amine or outer side, 2 acyl side, 3 side chain; linkers in the order of their positions; H or OH if unused. Positions of bridges follow the written chain, without caps; N, C: chain ends. Non-standard residues stand in square brackets, D forms with d. Residues, ends and D or L forms follow the SMILES beside them. ξ: configuration not given here. *: point of attachment. X2 = CCOc1ccc(-c2[nH]c3ccccc3c2C[C@H](N[*:1])C(=O)[*:2])cc1; Phe(3,4-(OMe)2) = COc1ccc(C[C@H](N)C(=O)O)cc1OC; Ala(4-thiazolyl) = N[C@@H](Cc1cscn1)C(=O)O; Phe(2-Cl) = N[C@@H](Cc1ccccc1Cl)C(=O)O; Bta = N[C@@H](Cc1csc2ccccc12)C(=O)O; Cyclobutanecarbonyl = O=C(C1CCC1)*; Hyp = O=C(O)[C@@H]1C[C@@H](O)CN1; NMeF = CN[C@@H](Cc1ccccc1)C(=O)O; 3Pal = N[C@@H](Cc1cccnc1)C(=O)O; NMeNle = CCCC[C@H](NC)C(=O)O; NMeM = CN[C@@H](CCSC)C(=O)O; ξR = N=C(N)NCCCC(N)C(=O)O; NMeA = CN[C@@H](C)C(=O)O; Orn = NCCC[C@H](N)C(=O)O; Dab = NCC[C@H](N)C(=O)O; Dap = NC[C@H](N)C(=O)O; ξC = NC(CS)C(=O)O; Sar = CNCC(=O)O

How the values were obtained:
[1] = target: T1, LK35.2-hPD-L1 cells / PE-labeled PD-1-Ig (Homo sapiens, UniProt Q9NZQ7); assay: LK35.2-hPD-L1 cell binding high-content screening assay; format: cell-based; settings: cluster symbol, read-out: CBA IC50 cluster
T1 construct: expressed in transfected cells; host or cells: LK35.2 mouse B cell line
T1 sequence (Q9NZQ7 19-290): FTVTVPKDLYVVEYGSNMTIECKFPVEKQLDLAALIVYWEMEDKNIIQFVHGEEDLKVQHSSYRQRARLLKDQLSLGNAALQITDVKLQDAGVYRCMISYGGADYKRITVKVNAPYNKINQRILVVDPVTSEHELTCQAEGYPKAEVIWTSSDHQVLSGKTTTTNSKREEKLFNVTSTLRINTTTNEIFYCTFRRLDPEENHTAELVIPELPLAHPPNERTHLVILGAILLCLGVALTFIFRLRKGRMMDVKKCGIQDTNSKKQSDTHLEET
Method in brief: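 Readout: high-content imaging of PE-PD-1-Ig bound to LK35.2-hPD-L1 cells. Cells plated overnight (RPMI/10% FCS); compound + 1 nM PE-PD-1-Ig, 1 h, 37 °C; 3× dPBS wash before imaging.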

[2] = target: T2, Human PD-L1/PD-1 (Homo sapiens, UniProt Q9NZQ7); assay: HTRF PD-1-Ig/PD-L1-His binding assay (human PD-L1); settings: cluster symbol; read-out: HTRF IC50 cluster
T2 construct: made in house; host or cells: HEK293T
T2 sequence (Q9NZQ7 with tags, fused parts or gaps): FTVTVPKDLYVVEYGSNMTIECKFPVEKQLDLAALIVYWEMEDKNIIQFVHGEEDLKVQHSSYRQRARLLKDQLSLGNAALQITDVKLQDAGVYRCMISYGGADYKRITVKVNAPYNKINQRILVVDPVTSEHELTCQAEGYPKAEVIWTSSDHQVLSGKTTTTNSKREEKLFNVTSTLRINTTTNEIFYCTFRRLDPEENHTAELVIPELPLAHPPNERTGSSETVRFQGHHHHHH
Method in brief: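 The time-resolved fluorescence signal comes from Eu-cryptate anti-Ig (1 nM) and APC anti-His (20 nM) antibodies bound to a PD-1-Ig/PD-L1-His complex. Both partners lack transmembrane regions.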

[3] = cell binding assay, cell line not given
[4] = cell line of CBA not given (LK35.2-hPD-L1 or 293T-hPD-L1)

Row | IC50 [1, 3] [nM] | IC50 [2] [nM] | IC50 [1, 4] [nM] | Compound
1 | 4.78 to 72.9 | 0.385 to 6.74 | – | CCCC[C@H]1C(=O)N(C)[C@@H](CCCC)C(=O)NC(CCCNC(=N)N)C(=O)N[C@H](C(=O)NCC(N)=O)CSCC(=O)N[C@@H](Cc2ccc(O)cc2)C(=O)N(C)[C@@H](C)C(=O)N[C@@H](CC(N)=O)C(=O)N2CCC[C@H]2C(=O)N[C@@H](CN)C(=O)N[C@@H](CC(C)C)C(=O)N2CCC[C@H]2C(=O)N[C@@H](Cc2c[nH]c3ccccc23)C(=O)N[C@@H](CO)C(=O)N[C@@H](Cc2c(-c3ccc(OCC)cc3)[nH]c3ccccc23)C(=O)N1C (some centres unmarked) [Example 7011] ({CH2CO}-Y[NMeA]NP[Dap]LPWS[X2][NMeNle][NMeNle][ξR]CG-NH2; thioether N-14)
2 | 0.158 to 4.71 | 6.76 to 30.3 | – | CCCC[C@H]1C(=O)N[C@@H](CCCNC(=N)N)C(=O)NC(C(=O)NCC(N)=O)CSCC(=O)N[C@@H](Cc2ccc(O)cc2)C(=O)N(C)[C@@H](C)C(=O)N[C@@H](CC(N)=O)C(=O)N2CCC[C@H]2C(=O)N[C@@H](CN)C(=O)N[C@@H](CC(C)C)C(=O)N2C[C@H](O)C[C@H]2C(=O)N[C@@H](Cc2c[nH]c3ccccc23)C(=O)N[C@@H](CO)C(=O)N[C@@H](Cc2csc3ccccc23)C(=O)N(C)[C@@H](CCSC)C(=O)N1C (some centres unmarked) [Example 9092] ({CH2CO}-Y[NMeA]NP[Dap]L[Hyp]WS[Bta][NMeM][NMeNle]R[ξC]G-NH2; thioether N-14)
3 | – | > 30.5 | > 74.3 | CCCC[C@H]1C(=O)N(C)[C@@H](CCCC)C(=O)N[C@@H](CCCNC(=N)N)C(=O)N[C@H](C(=O)NCC(N)=O)CSCC(=O)N[C@@H](Cc2ccccc2Cl)C(=O)N(C)[C@@H](C)C(=O)N[C@@H](CC(N)=O)C(=O)N2CCC[C@H]2C(=O)N[C@@H](Cc2cnc[nH]2)C(=O)N[C@@H](CC(C)C)C(=O)N(C)CC(=O)N[C@@H](Cc2c[nH]c3ccccc23)C(=O)N[C@@H](CO)C(=O)N[C@@H](Cc2c[nH]c3ccccc23)C(=O)N1C [Example 1101] ({CH2CO}-[Phe(2-Cl)][NMeA]NPHL[Sar]WSW[NMeNle][NMeNle]RCG-NH2; thioether N-14)
4 | – | 0.385 to 6.74 | 0.158 to 4.71 | CCCC[C@H]1C(=O)N(C)[C@@H](CCCC)C(=O)N[C@@H](CN)C(=O)N[C@H](C(=O)NCC(N)=O)CSCC(=O)N[C@@H](Cc2ccc(O)cc2)C(=O)N(C)[C@@H](C)C(=O)N[C@@H](CC(N)=O)C(=O)N2CCC[C@H]2C(=O)N[C@@H](CN)C(=O)N[C@@H](CC(C)C)C(=O)N2C[C@H](O)C[C@H]2C(=O)N[C@@H](Cc2c[nH]c3ccccc23)C(=O)N[C@@H](CCN)C(=O)N[C@@H](Cc2csc3ccccc23)C(=O)N1C [Example 1180] ({CH2CO}-Y[NMeA]NP[Dap]L[Hyp]W[Dab][Bta][NMeNle][NMeNle][Dap]CG-NH2; thioether N-14)
5 | – | > 30.5 | > 74.3 | CCCC[C@H]1C(=O)N(C)[C@@H](CCCC)C(=O)N[C@@H](CCCNC(=N)N)C(=O)N[C@H](C(=O)NCC(N)=O)CSCC(=O)N[C@@H](Cc2ccccc2)C(=O)N(C)[C@@H](C)C(=O)N[C@@H](CC(N)=O)C(=O)N2CCC[C@H]2C(=O)N[C@@H](Cc2cnc[nH]2)C(=O)N[C@@H](CC(C)C)C(=O)N(C)CC(=O)N[C@@H](Cc2ccc(OC)c(OC)c2)C(=O)N[C@@H](CO)C(=O)N[C@@H](Cc2c[nH]c3ccccc23)C(=O)N1C [Example 1080] ({CH2CO}-F[NMeA]NPHL[Sar][Phe(3,4-(OMe)2)]SW[NMeNle][NMeNle]RCG-NH2; thioether N-14)
6 | – | > 30.5 | > 74.3 | CC(C)C[C@@H]1NC(=O)[C@H](Cc2cnc[nH]2)NC(=O)[C@@H]2CCCN2C(=O)[C@H](CC(N)=O)NC(=O)[C@H](C)N(C)C(=O)[C@H](Cc2ccccc2)NC(=O)CSC[C@@H](C(=O)NCC(N)=O)NC(=O)[C@H](CCCNC(=N)N)NC(=O)[C@H](C)N(C)C(=O)[C@H](CCNC(=O)C2CCC2)NC(=O)[C@H](Cc2c[nH]c3ccccc23)NC(=O)[C@H](CO)NC(=O)[C@H](Cc2c[nH]c3ccccc23)NC(=O)CN(C)C1=O [Example 1034] ({CH2CO}-F[NMeA]NPHL[Sar]WSW[Dab](Cyclobutanecarbonyl)[NMeA]RCG-NH2; thioether N-14)
7 | 4.78 to 72.9 | 6.76 to 30.3 | – | CCCC[C@H]1C(=O)N(C)[C@@H](CCCC)C(=O)N[C@@H](CCCNC(=N)N)C(=O)N[C@H](C(=O)NCC(N)=O)CSCC(=O)N[C@@H](Cc2ccc(O)cc2)C(=O)N(C)[C@@H](C)C(=O)N[C@@H](CCCN)C(=O)N2CCC[C@H]2C(=O)N[C@@H](Cc2c[nH]cn2)C(=O)N[C@@H](CC(=O)O)C(=O)N2C[C@H](O)C[C@H]2C(=O)N[C@@H](Cc2c[nH]c3ccccc23)C(=O)N[C@@H](CO)C(=O)N[C@@H](Cc2c[nH]c3ccccc23)C(=O)N1C [Example 5105] ({CH2CO}-Y[NMeA][Orn]PHD[Hyp]WSW[NMeNle][NMeNle]RCG-NH2; thioether N-14)
8 | > 74.3 | 6.76 to 30.3 | – | CCCC[C@H]1C(=O)N(C)CC(=O)N[C@@H](CC(=O)O)C(=O)N[C@@H](C(C)C)C(=O)N(C)[C@@H](Cc2ccccc2)C(=O)N[C@@H](Cc2ccc(O)cc2)C(=O)N(C)CC(=O)N[C@@H](Cc2c[nH]c3ccccc23)C(=O)N[C@@H](Cc2ccc(O)cc2)C(=O)N[C@@H](CC(C)C)C(=O)N[C@H](C(=O)NCC(N)=O)CSCC(=O)N[C@@H](Cc2ccccc2)C(=O)N[C@@H](Cc2cccnc2)C(=O)N1C [Example 3602] ({CH2CO}-F[3Pal][NMeNle][Sar]DV[NMeF]Y[Sar]WYLCG-NH2; thioether N-13)
9 | 0.158 to 4.71 | 0.385 to 6.74 | – | CCCC[C@H]1C(=O)N(C)[C@@H](CCCC)C(=O)N[C@@H](CCN)C(=O)N[C@H](C(=O)NCC(N)=O)CSCC(=O)N[C@@H](Cc2ccc(O)cc2)C(=O)N(C)[C@@H](C)C(=O)N[C@@H](CC(=O)O)C(=O)N2CCC[C@H]2C(=O)N[C@@H](Cc2cnc[nH]2)C(=O)N[C@@H](CCC(=O)O)C(=O)N2C[C@H](O)C[C@H]2C(=O)N[C@@H](Cc2c[nH]c3ccccc23)C(=O)N[C@@H](CCN)C(=O)N[C@@H](Cc2c[nH]c3ccccc23)C(=O)N1C [Example 5034] ({CH2CO}-Y[NMeA]DPHE[Hyp]W[Dab]W[NMeNle][NMeNle][Dab]CG-NH2; thioether N-14)
10 | – | > 30.5 | > 74.3 | CCCC[C@H]1C(=O)N(C)[C@@H](CCCC)C(=O)N[C@@H](CCCNC(=N)N)C(=O)N[C@H](C(=O)NCC(N)=O)CSCC(=O)N[C@@H](Cc2cscn2)C(=O)N(C)[C@@H](C)C(=O)N[C@@H](CC(N)=O)C(=O)N2CCC[C@H]2C(=O)N[C@@H](Cc2cnc[nH]2)C(=O)N[C@@H](CC(C)C)C(=O)N(C)CC(=O)N[C@@H](Cc2c[nH]c3ccccc23)C(=O)N[C@@H](CO)C(=O)N[C@@H](Cc2c[nH]c3ccccc23)C(=O)N1C [Example 1096] ({CH2CO}-[Ala(4-thiazolyl)][NMeA]NPHL[Sar]WSW[NMeNle][NMeNle]RCG-NH2; thioether N-14)
11 | – | 0.385 to 6.74 | 4.78 to 72.9 | CCCC[C@H]1C(=O)N2CCC[C@@H]2C(=O)N[C@@H](CCC(=O)O)C(=O)N[C@@H](C(C)C)C(=O)N(C)[C@@H](Cc2ccccc2)C(=O)N[C@@H](CN)C(=O)N2CCC[C@@H]2C(=O)N[C@@H](Cc2c[nH]c3ccccc23)C(=O)N[C@@H](Cc2ccc(O)cc2)C(=O)N[C@@H](CC(C)C)C(=O)N[C@H](C(=O)NCC(N)=O)CSCC(=O)N[C@@H](Cc2ccccc2)C(=O)N(C)[C@@H](Cc2ccccc2)C(=O)N1C [Example 3191] ({CH2CO}-F[NMeF][NMeNle][dP]EV[NMeF][Dap][dP]WYLCG-NH2; thioether N-13)
12 | – | 0.385 to 6.74 | 0.158 to 4.71 | CCCC[C@H]1C(=O)N(C)[C@@H](CCCC)C(=O)N[C@@H](CCCN)C(=O)N[C@H](C(=O)NCC(N)=O)CSCC(=O)N[C@@H](Cc2ccc(O)cc2)C(=O)N(C)[C@@H](C)C(=O)N[C@@H](CC(=O)O)C(=O)N2CCC[C@H]2C(=O)N[C@@H](CN)C(=O)N[C@@H](CC(=O)O)C(=O)N2C[C@H](O)C[C@H]2C(=O)N[C@@H](Cc2c[nH]c3ccccc23)C(=O)N[C@@H](CCN)C(=O)N[C@@H](Cc2csc3ccccc23)C(=O)N1C [Example 1184] ({CH2CO}-Y[NMeA]DP[Dap]D[Hyp]W[Dab][Bta][NMeNle][NMeNle][Orn]CG-NH2; thioether N-14)
13 | 0.158 to 4.71 | 0.385 to 6.74 | – | CCCC[C@H]1C(=O)N(C)[C@@H](CCSC)C(=O)N[C@@H](CCCNC(=N)N)C(=O)NC(C(=O)NCC(N)=O)CSCC(=O)N[C@@H](Cc2ccc(O)cc2)C(=O)N(C)[C@@H](C)C(=O)N[C@@H](CC(N)=O)C(=O)N2CCC[C@H]2C(=O)N[C@@H](Cc2cnc[nH]2)C(=O)N[C@@H](CC(C)C)C(=O)N2C[C@H](O)C[C@H]2C(=O)N[C@@H](Cc2c[nH]c3ccccc23)C(=O)N[C@@H](CO)C(=O)N[C@@H](Cc2csc3ccccc23)C(=O)N1C (some centres unmarked) [Example 9023] ({CH2CO}-Y[NMeA]NPHL[Hyp]WS[Bta][NMeNle][NMeM]R[ξC]G-NH2; thioether N-14)
